# Assay results from publication PMC10065799, “High-throughput profiling of sequence recognition by tyrosine kinases and SH2 domains using bacterial peptide display” (eLife, 2023).
# T1: c-Abl kinase domain (Mus musculus, UniProt P00520)
# T1 sequence (P00520 242-493 limits assumed): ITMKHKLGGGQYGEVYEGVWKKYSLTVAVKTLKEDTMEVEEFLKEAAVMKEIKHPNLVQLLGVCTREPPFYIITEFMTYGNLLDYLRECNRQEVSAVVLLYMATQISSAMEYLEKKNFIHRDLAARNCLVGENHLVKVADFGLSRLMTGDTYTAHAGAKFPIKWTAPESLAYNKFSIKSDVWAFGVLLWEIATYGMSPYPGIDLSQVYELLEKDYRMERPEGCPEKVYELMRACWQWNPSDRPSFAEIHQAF
# How the values were obtained:
# Hck kinase domain = assay: pTyr-Var library bacterial peptide display kinase screen (enrichment scores); assay type: biochemical, human
# Fer kinase domain = assay: as above; assay type: biochemical, mouse
# Fes = assay: as above; assay type: biochemical
# AncSZ kinase domain = assay: as above; assay type: biochemical
# c-Src kinase domain = c-Src kinase domain (Homo sapiens, UniProt P12931); assay: as above; assay type: biochemical;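 on c-Src hit?: Hit requires p below 0.05 and at least twofold variant vs reference change plus filters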
# EPHB1 kinase domain = assay: as above; assay type: biochemical, human
# MERTK kinase domain = assay: as above; assay type: biochemical, human
# SHP2 C-SH2 domain = assay: pTyr-Var library SH2 domain screen with SH2-dynabeads (enrichment scores)
# c-Abl kinase domain = target: T1, c-Abl kinase domain; assay: pTyr-Var library bacterial peptide display kinase screen (enrichment scores); assay type: biochemical;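 on AncSZ hit?: Hit requires p below 0.05 and at least twofold variant vs reference change plus filters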;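 on Fer hit?: Hit requires p below 0.05 and at least twofold variant vs reference change plus filters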;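 on c-Src hit?: Hit requires p below 0.05 and at least twofold variant vs reference change plus filters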
# FGFR1 kinase domain = assay: as above; assay type: biochemical, human
# c-Src SH2 domain = c-Src SH2 domain (Homo sapiens, UniProt P12931); assay: pTyr-Var library SH2 domain screen with SH2-dynabeads (enrichment scores); conditions: sheet c-Src
# Fyn kinase domain = assay: pTyr-Var library bacterial peptide display kinase screen (enrichment scores); assay type: biochemical, human
# EPHB2 kinase domain = assay: as above; assay type: biochemical, human
# Grb2 SH2 domain = assay: pTyr-Var library SH2 domain screen with SH2-dynabeads (enrichment scores)
# Jak2 = assay: pTyr-Var library bacterial peptide display kinase screen (enrichment scores); assay type: biochemical, human
# FGFR3 kinase domain = assay: as above; assay type: biochemical, human
# [1] = target: mouse c-Abl kinase domain (residues 232-502) (mouse) (UniProt P00520)
# [2] = pTyr-Var library, enrichment score, replicate 1
# [3] = pTyr-Var library, enrichment score, replicate 3
# [4] = pTyr-Var library, enrichment score, replicate 4
# [5] = variant versus reference peptide
# [6] = variant versus reference peptide, significant hit TRUE/FALSE
# [7] = mean of log2 of enrichment over R1-R4
# [8] = mean of log2(variant) minus mean of log2(reference)
# [9] = mean of log2 enrichment of variant peptide, n = 4
# [10] = mean of log2 enrichment of variant peptide, n = 5
# mouse c-Abl kinase domain (residues 232-502) (mouse), sequence (P00520 232-502): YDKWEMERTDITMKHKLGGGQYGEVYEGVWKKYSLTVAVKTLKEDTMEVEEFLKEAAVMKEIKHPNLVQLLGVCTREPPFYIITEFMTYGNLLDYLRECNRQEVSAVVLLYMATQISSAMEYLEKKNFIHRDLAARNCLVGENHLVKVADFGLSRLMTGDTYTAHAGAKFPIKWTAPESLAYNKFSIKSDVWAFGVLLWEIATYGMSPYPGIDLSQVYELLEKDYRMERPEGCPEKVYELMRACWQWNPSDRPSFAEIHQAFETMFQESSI
molecule,measurement,setting,value
ATGLIYIGSHD [AASDH_Y870_T865A],Hck mean of log2(enrichment),"Hck kinase domain; mean of log2(variant) / mean of log2(reference), R1-R4",0.4694
same,Hck enrich. R1,Hck kinase domain; [2],0.8875
same,Hck enrich. R3,Hck kinase domain; [3],0.3766
same,Hck enrich. R4,Hck kinase domain; [4],0.194
same,Hck difference (variant - reference),Hck kinase domain; [5],0.009668
same,Hck hit?,Hck kinase domain; [6],FALSE
same,Fer mean of log2(enrichment),Fer kinase domain; [7],-1.02
same,Fer enrich. R1,Fer kinase domain; [2],0.4993
same,Fer enrich. R3,Fer kinase domain; [3],0.7968
same,Fer enrich. R4,Fer kinase domain; [4],0.4647
same,Fer difference (mean log2 variant - mean log2 reference),Fer kinase domain; [5],0.2779
same,Fer hit?,Fer kinase domain; [6],FALSE
same,Fes mean of log2(enrichment),Fes; mean of log2 of enrichment over R1-R6,0.1901
same,Fes enrichment (mean),"Fes; pTyr-Var library, enrichment score, mean of replicates R1-R6",1.145
same,Fes difference (mean log2 variant - mean log2 reference),Fes; [5],0.6008
same,AncSZ mean of log2(enrichment),AncSZ kinase domain; mean of log2 of enrichment over R1-R5,-0.2868
same,AncSZ enrich. R1,AncSZ kinase domain; [2],0.8707
same,AncSZ enrich. R3,AncSZ kinase domain; [3],0.8843
same,AncSZ enrich. R4,AncSZ kinase domain; [4],0.9628
same,AncSZ enrich. R5,"AncSZ kinase domain; pTyr-Var library, enrichment score, replicate 5",0.6734
same,AncSZ difference (mean log2 variant - mean log2 reference),AncSZ kinase domain; [5],0.1813
same,AncSZ hit?,AncSZ kinase domain; [6],FALSE
same,c-Src mean of log2(enrichment),c-Src kinase domain; [7],-1.071
same,c-Src enrich. R1,c-Src kinase domain; [2],0.5345
same,c-Src enrich. R3,c-Src kinase domain; [3],0.3128
same,c-Src enrich. R4,c-Src kinase domain; [4],0.6339
same,c-Src difference (mean log2 variant - mean log2 reference),c-Src kinase domain; [5],0.2235
same,c-Src hit?,c-Src kinase domain; [6],FALSE
same,difference,EPHB1 kinase domain; [8],0.11
same,mean of log2(variant),EPHB1 kinase domain; [9],-0.4876
same,difference,MERTK kinase domain; [8],0.7784
same,mean of log2(variant),MERTK kinase domain; [9],-0.9082
same,difference,"SHP2 C-SH2 domain; SHP2-C SH2, mean of log2(variant) minus mean of log2(reference)",-0.2085
same,mean of log2(variant),"SHP2 C-SH2 domain; SHP2-C SH2, mean of log2 enrichment of variant, R1-R3",-0.9356
same,hit?,"SHP2 C-SH2 domain; SHP2-C SH2, variant versus reference significant hit call",FALSE
same,c-Abl mean of log2(enrichment),c-Abl kinase domain; [7],-0.2804
same,c-Abl enrich. R1,c-Abl kinase domain; [2],0.635
same,c-Abl enrich. R3,c-Abl kinase domain; [3],0.7155
same,c-Abl enrich. R4,c-Abl kinase domain; [4],1.499
same,c-Abl hit?,c-Abl kinase domain; [6],FALSE
same,difference,FGFR1 kinase domain; [8],-0.06079
same,mean of log2(variant),FGFR1 kinase domain; [10],-1.25
same,difference,c-Src SH2 domain; [8],-0.1239
same,mean of log2(variant),"c-Src SH2 domain; mean of log2 enrichment of variant peptide, R1-R3",-0.9155
same,Fyn mean of log2(enrichment),Fyn kinase domain; [7],-1.279
same,Fyn enrich. R1,Fyn kinase domain; [2],0.5717
same,Fyn enrich. R3,Fyn kinase domain; [3],0.2668
same,Fyn enrich. R4,Fyn kinase domain; [4],0.4414
same,Fyn difference (mean log2 variant - mean log2 reference),Fyn kinase domain; [5],0.2007
same,Fyn hit?,Fyn kinase domain; [6],FALSE
same,difference,EPHB2 kinase domain; [8],0.3789
same,mean of log2(variant),EPHB2 kinase domain; [9],-0.4994
same,difference,"Grb2 SH2 domain; Grb2 SH2, mean of log2(variant) minus mean of log2(reference)",-0.4428
same,mean of log2(variant),"Grb2 SH2 domain; Grb2 SH2, mean of log2 enrichment of variant, R1-R3",-0.4021
same,hit?,"Grb2 SH2 domain; Grb2 SH2, variant versus reference significant hit call",FALSE
same,Jak2 mean of log2(enrichment),Jak2; mean of log2 of enrichment over R1-R3,-0.3116
same,Jak2 enrich. R1,Jak2; [2],0.8629
same,Jak2 enrich. R3,Jak2; [3],0.7054
same,Jak2 difference (mean log2 variant - mean log2 reference),Jak2; [5],0.1735
same,Jak2 hit?,Jak2; [6],FALSE
same,difference,FGFR3 kinase domain; [8],0.03027
same,mean of log2(variant),FGFR3 kinase domain; [10],-0.6189
Ac-GAPEVIYATPGAKKKG-NH2 [AblTide (2014) peptide Ac-…-NH2],"KM (μM) of phosphorylation, Michaelis-Menten analysis, ADP-Quest assay",[1],35 µM
